Values after ≈ are worked out from the molar mass of the structure shown.
test system: Mycobacterium tuberculosis; test: Antimycobacterial activity against rifampin- and Isoniazid- resistant Mycobacterium tuberculosis Beijing harboring Ser 531-Leu 315 rpoB mutant and Ser-Thr katG mutant after 10 days by microbroth dilution method; type: functional

Row | SMILES | MIC
1 | Brc1cncnc1-c1cccs1 | 0.7 µg/mL (≈ 2.9 µM)
2 | Brc1cncnc1-c1ccco1 | 1.5 µg/mL (≈ 6.67 µM)
3 | C(=C\c1cncnc1-c1ccc(-c2cccs2)s1)/c1ccc(-c2ccccc2)cc1 | 1.5 µg/mL (≈ 3.55 µM)
